Values of other authors as cited in patent publication CN104352465A, “一种不含二氧化硅的琥珀酸普芦卡必利药物组合物及其制备方法” (CHENGDU SINO-STRONG PHARMACEUTICAL Co Ltd, priority 2014, dated 2015).

Conditions: within shelf life, with the diluent lactose monohydrate

adduct formation with lactose monohydrate: 形成乳糖加合物
SMILES: COCCCN1CCC(NC(=O)c2cc(Cl)c(N)c3c2OCC3)CC1.O=C(O)CCC(=O)O [琥珀酸普芦卡必利, 4-氨基-5-氯-2,3-二氢-N-[1-(3-甲氧基丙基)-4-哌啶基]-7-苯并呋喃甲酰胺丁二酸盐]
